Earlier results, collected in US10155994B2, “Methods of detecting DDR2 mutations” (QUEST DIAGNOSTICS INVESTMENTS INCORPORATED, priority 2012, dated 2018).

Conditions: current daily oral dosing; from Bradeen et al. Blood 2006

In the case of `Cc1nc(Nc2ncc(C(=O)Nc3c(C)cccc3Cl)s2)cc(N2CCN(CCO)CC2)n1` [dasatinib], the “achievable plasma trough concentration” value is given as 100 nM.
For `Cc1cn(-c2cc(NC(=O)c3ccc(C)c(Nc4nccc(-c5cccnc5)n4)c3)cc(C(F)(F)F)c2)cn1` [nilotinib], the “achievable plasma trough concentration” value is given as 2000 nM.
